From ChEMBL document CHEMBL1135181, “Synthesis and anti-influenza virus activity of 7-O-alkylated derivatives related to zanamivir” (Bioorg Med Chem Lett, 2002)

Key:
[1] = molecular target: Neuraminidase (Influenza A virus (A/Puerto Rico/8/1934(H1N1)), UniProt P03468); assay: Inhibition of influenza A sialidase in vitro.
Influenza A virus [2] = assay: Inhibitory concentration by Plaque reduction assay; range-1.9-12; format: functional, organism-based
Influenza A virus [3] = assay: Inhibitory concentration by Plaque reduction assay; range-1.9-20; format: functional, organism-based
Influenza A virus [4] = assay: In vitro antiviral activity against Influenza A.; format: functional, organism-based

Neuraminidase (Influenza A virus (A/Puerto Rico/8/1934(H1N1)), UniProt P03468), sequence (P03468 whole entry): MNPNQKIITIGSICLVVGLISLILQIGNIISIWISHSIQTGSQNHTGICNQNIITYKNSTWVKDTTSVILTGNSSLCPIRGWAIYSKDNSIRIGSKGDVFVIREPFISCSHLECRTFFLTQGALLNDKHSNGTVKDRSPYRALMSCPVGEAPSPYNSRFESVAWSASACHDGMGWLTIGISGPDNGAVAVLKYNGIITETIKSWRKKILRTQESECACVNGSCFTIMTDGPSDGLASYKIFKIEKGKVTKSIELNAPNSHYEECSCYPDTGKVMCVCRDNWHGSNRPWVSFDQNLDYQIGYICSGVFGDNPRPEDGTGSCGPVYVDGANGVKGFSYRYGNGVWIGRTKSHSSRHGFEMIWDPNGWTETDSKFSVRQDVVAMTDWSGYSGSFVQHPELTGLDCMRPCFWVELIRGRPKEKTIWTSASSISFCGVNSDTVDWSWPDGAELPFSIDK

CCO[C@@H]([C@@H]1OC(C(=O)O)=C[C@H](N=C(N)N)[C@H]1NC(C)=O)[C@H](O)CO
IC50 [1]: 55.7 nM

CC(=O)N[C@H]1[C@H]([C@H](O)[C@H](O)CO)OC(C(=O)O)=C[C@@H]1NC(=N)N.O=C(O)C(F)(F)F [ZANAMIVIR TFA]
IC50 (Influenza A virus [2]): 1.9 ng/mL
IC50 (Influenza A virus [3]): 1.9 ng/mL

CCCCCCCCO[C@@H]([C@@H]1OC(C(=O)O)=C[C@H](N=C(N)N)[C@H]1NC(C)=O)[C@H](O)CO.O=C(O)C(F)(F)F
IC50 (Influenza A virus [4]): 1.8 ng/mL
IC50 [1]: 36.2 nM

CCCCCO[C@H](CC)[C@@H]1OC(C(=O)O)=C[C@H](N=C(N)N)[C@H]1NC(C)=O.O=C(O)C(F)(F)F
IC50 (Influenza A virus [4]): 3.8 ng/mL
IC50 [1]: 18.8 nM

CCCCCCCCCCCCO[C@H](CC)[C@@H]1OC(C(=O)O)=C[C@H](N=C(N)N)[C@H]1NC(C)=O.O=C(O)C(F)(F)F
IC50 (Influenza A virus [4]): > 50 ng/mL
IC50 [1]: 48.7 nM

CCCCCCCCO[C@H](CC)[C@@H]1OC(C(=O)O)=C[C@H](N=C(N)N)[C@H]1NC(C)=O.O=C(O)C(F)(F)F
IC50 (Influenza A virus [4]): 40 ng/mL
IC50 [1]: 31.5 nM

CCCCCCCCCCCCO[C@@H]([C@@H]1OC(C(=O)O)=C[C@H](N=C(N)N)[C@H]1NC(C)=O)[C@H](O)CO.O=C(O)C(F)(F)F
IC50 (Influenza A virus [4]): 2.2 ng/mL
IC50 [1]: 80.7 nM

CCO[C@H](CC)[C@@H]1OC(C(=O)O)=C[C@H](N=C(N)N)[C@H]1NC(C)=O.O=C(O)C(F)(F)F
IC50 (Influenza A virus [4]): 16 ng/mL
IC50 [1]: 79.3 nM

CCCCCO[C@@H]([C@@H]1OC(C(=O)O)=C[C@H](N=C(N)N)[C@H]1NC(C)=O)[C@H](O)CO.O=C(O)C(F)(F)F
IC50 (Influenza A virus [4]): 2 ng/mL
IC50 [1]: 27.7 nM

CC(=O)N[C@H]1[C@H]([C@H](OCCN=[N+]=[N-])[C@H](O)CO)OC(C(=O)O)=C[C@@H]1NC(=N)N.O=C(O)C(F)(F)F
IC50 (Influenza A virus [4]): 1.5 ng/mL
IC50 [1]: 28.7 nM

CC(=O)N[C@H]1[C@H]([C@H](OCCN)[C@H](O)CO)OC(C(=O)O)=C[C@@H]1NC(=N)N.O=C(O)C(F)(F)F
IC50 (Influenza A virus [4]): 7.5 ng/mL
IC50 [1]: 97.5 nM

CC(=O)N[C@H]1[C@H]([C@H](OCCO)[C@H](O)CO)OC(C(=O)O)=C[C@@H]1NC(=N)N.O=C(O)C(F)(F)F
IC50 (Influenza A virus [4]): 1.8 ng/mL
IC50 [1]: 21 nM

CCCO[C@@H]([C@@H]1OC(C(=O)O)=C[C@H](N=C(N)N)[C@H]1NC(C)=O)[C@H](O)CO.O=C(O)C(F)(F)F
IC50 (Influenza A virus [4]): 1.5 ng/mL
IC50 [1]: 62.7 nM

CC(=O)N[C@H]1[C@H]([C@H](OCC2CCCCC2)[C@H](O)CO)OC(C(=O)O)=C[C@@H]1NC(=N)N.O=C(O)C(F)(F)F
IC50 (Influenza A virus [4]): 3 ng/mL
IC50 [1]: 67.5 nM

CC(=O)NCCO[C@@H]([C@@H]1OC(C(=O)O)=C[C@H](N=C(N)N)[C@H]1NC(C)=O)[C@H](O)CO.O=C(O)C(F)(F)F
IC50 (Influenza A virus [4]): 2.4 ng/mL
IC50 [1]: 18.4 nM

CCCCCCCCCCCCCCO[C@@H]([C@@H]1OC(C(=O)O)=C[C@H](N=C(N)N)[C@H]1NC(C)=O)[C@H](O)CO.O=C(O)C(F)(F)F
IC50 (Influenza A virus [4]): 11 ng/mL
IC50 [1]: 408 nM

CC(=O)N[C@H]1[C@H]([C@H](OCCC2CCCCC2)[C@H](O)CO)OC(C(=O)O)=C[C@@H]1NC(=N)N.O=C(O)C(F)(F)F
IC50 (Influenza A virus [4]): 1.9 ng/mL
IC50 [1]: 47.3 nM

CCCO[C@H](CC)[C@@H]1OC(C(=O)O)=C[C@H](N=C(N)N)[C@H]1NC(C)=O.O=C(O)C(F)(F)F
IC50 (Influenza A virus [4]): 9 ng/mL
IC50 [1]: 30.9 nM
